Several values for one entry are separate records, joined by “and”; a condition that tells them apart may be missing. Equal entries are not always repeated. Entries after “also recorded” stand apart in the source; their conditions may differ. Marks after values point to notes of the source that are not given here.
Key:
[1] = system: bFGF-induced angiogenesis in rat corneas; assay: Corneal angiogenesis, implanted hydron pellets; type: in vivo; conditions: pellets with bFGF 100 ng, alone or plus ST104P 500 ng, day 7
Description: FIG. 8. […] The asterisk represents the place of hydron pellet implantation. (B) The neovascularization in rat corneas after implantation bFGF hydron pellets or pellets containing bFGF and ST104P. The length (panel a) and area (panel b) of neovascularized vessels in rat corneas were measured after implantation for 3-7 days. Data are means±SEM (n=8 per group). *P<0.01.
(§1) All rats were handled in accordance with the Association for Research in Vision and Ophthalmology Resolution on the Use of Animals in Research. Male Sprague-Dawley rats (300-350 g, Animal Center, National Science Counsel, Taipei, Taiwan) were used in this study. All surgical procedures were performed using sterile techniques. The rats were placed under anesthesia with 3% isoflurane in an O2/room air mixture (1:1). Additional topical anesthesia (0.4% benoxinate hydrochloride, Ciba Vision Ltd., Hettlingen, Switzerland) was applied to the corneal surface. The eyes were exposed by grasping the temporal limboconjunctiva using a jeweler's forceps and the central-peripheral corneal intrastromal lamellar pocket (0.6×1.5×1 mm for depth×length×width) was dissected with a surgical blade (Paragon no. 11; Maersk Medical LTD, Sheffield, England). The pockets were extended 1.5 to 2 mm away from the limbus. The pellet was grasped by smooth forceps from the refrigerator (−20° C.) and immediately implanted into the corneal stromal pocket in each eye. Topical antibiotic ointment (0.3% gentamycin; Alcon Cusi, Spain) was applied to the corneal surface to reduce irritation and prevent infection.
Implanting Hydron Pellets
(§2) Biomicroscopic Examination
(§3) Examinations were made with a dissecting microscope and results were photographed on days 3, 5 and 7. Under anesthesia, the maximum vessel length and width of the neovascularization in rat eyes were measured and calibrated using a microscale (Nikon, Tokyo, Japan). The area of neovascularization of the cornea was determined from the dimensions of the triangular growth pattern of the vessels. Photographs of the corneal angiogenesis assay were obtained and digitized in a 640×480 pixel matrix, using a digital camera CoolPix 995 (Nikon, Tokyo, Japan). The operator was blinded to experimental design. Areas containing blood vessels were traced on the computer monitor and calculated with image analysis software (Scion Image 4.02; Scion, Maryland, USA) and reported in square millimeters with determinations. The biomicroscopic assessment was conducted by two independent observers.
(§4) To analyze the differences between groups, Mann-Whitney U test analysis with two-tailed probability was used and a P value of less than 0.05 was considered significant. Results are presented as means±SEM (standard error of the mean). For each experiment, surgery was performed on all animals in a standardized fashion, and animals were randomized to the different treatment and control groups.

BAEC [2] = conditions: incubation 6 h, bFGF 100 ng/ml
Description: (§5) FIG. 2. […] After trypsinization, endothelial cells were applied to top wells in Boyden chamber to initiated migration toward chemoattractant bFGF (100 ng/ml) in the bottom wells. The migrated cells on filter were stained and counted. Each point represents mean±SEM of triplicate experiments.
(§6) The compartments were separated by a polycarbonate filter (8-μm pore size; Nucleopore, Costar, Cambridge, Mass.) coated with 0.005% gelatin to allow cell adhesion. After incubation for 2-4 h in a humidified 5% CO2 atmosphere at 37° C., cells on the upper side of the filter were removed, and those that had migrated to the lower side were fixed in absolute ethanol, stained with 10% Giemsa solution (Merck, Germany), and counted as a mean±SD per filter under five different high power fields.

EA.hy926 = conditions: EA.hy926, incubation 6 h, bFGF 100 ng/ml
Description: as §5, §6

BAEC [3] = assay: Tube formation assay in Matrigel; type: cell-based, Bovine; conditions: ST104P 20-100 μg/ml
Description: FIG. 3. ST104P abolished the tube formation of endothelial cells. […] Endothelial cells were applied to Matrigel-coated plate in the absence or presence of ST104P. After 8 h, the tubular structures of BAEC cells were monitored and recorded under light microscopy. The pictures were taken at 400× magnification.
Matrigel (Becton Dickinson; Bedford, Mass.) was diluted with cold serum-free medium to 10 mg/ml. Two hundred μl of the diluted solution were added to each well in 24-well plate and allowed to form a gel at 37° C. for 30 min. […] Two hundred μl of the cell suspension (3×10^4 cells) were then subsequently added to each well and incubated for 6-8 h at 37° C. in 5% CO2. Under these conditions endothelial cells form delicate networks of tubes that are detectable within 2-3 h and are fully developed after 8-12 h.

EA.hy926 cells = assay: Tube formation assay in Matrigel; type: cell-based, Human; conditions: ST104P 20-100 μg/ml
[4] = system: secretion of MMP-2 by endothelial cells; assay: MMPs gelatin zymography of conditioned media of endothelial cells; type: cell-based; conditions: endothelial cells (BAEC, EA.hy926), even at dose as low as 10 μg/ml, 24 h
Description: (§7) Matrix Metalloproteinases (MMPs) Zymography
(§8) Secretion of MMPs by endothelial cells was assessed by 0.1% gelatin-SDS-PAGE zymography. Briefly, endothelial cells near 80% confluence were washed twice with serum-free media and treated with various doses of vasostatin for 24-48 h. Conditioned media were collected and assayed for protein concentration by Bradford assay. Aliquots of conditioned media were subjected to separation with 10% SDS-PAGE containing 0.1% type A gelatin (Sigma; St. Louis, Mo.). After electrophoresis, gel was washed twice with 2.5% Triton X-100, incubated in buffer containing 40 mM Tris-HCl, pH […], 0.01% sodium azide at 37° C. for 12-24 h, stained with 0.25% Coomassie Blue R-250 in 50% methanol and 10% acetic acid for 1 h, and destained with 10% acetic acid, 20% methanol. The gelatinolytic regions by MMPs were visualized as white bands in blue background.

[5] = system: secretion of MMP-9 by endothelial cells; assay: as above; type: cell-based; conditions: endothelial cells (BAEC, EA.hy926), even at dose as low as 10 μg/ml, 24 h
Description: as §7, §8

Lewis lung carcinoma = assay: Treatment of Lewis lung carcinoma in mice; type: in vivo
Description: FIG. 6. […] The subcutaneous dorsa of mice were implanted with Lewis lung carcinomas. […] Each point represents mean±SEM for ten mice.
FIG. 7. […] The subcutaneous dorsa of mice were implanted with Lewis lung carcinomas. […] Each point represents mean±SEM for ten mice.
Animal study was carried out in the animal facility of Kaohsiung Veterans General Hospital in accordance with institutional guidelines. Male C57BL/6J mice (6- to 8-week-old; Animal Center of National Cheng Kung University, Taiwan) were used. Mice were acclimated and caged in groups of four or less. All mice were fed with a diet of animal chow and water ad libitum. Animals were anesthetized in a methoxyflurane chamber prior to all procedures and were observed until fully recovered. Animals were sacrificed by a lethal dose of methoxyflurane.
Treatment of Lewis Lung Carcinoma
C57BL/6J mice were implanted with Lewis lung carcinomas cells using the techniques described previously (O'Reilly et al., Cell 88, 277-285, 1997). Briefly, the LL2 Lewis lung carcinoma cells were resuspended in PBS at the concentration of 2.5×10^6 cells per ml and injected into C57B16/J mice (n=20) with 0.1 ml of the cell suspension to induce tumor. Tumors were measured with a dial-caliper and volumes were determined using the formula width^2×length×0.52. […] In addition, the survival rate of mice in different groups was recorded and analyzed by Kaplan-Mier Survival analysis.

[6] = Tolerability in animals via various routes (data not shown); type: in vivo; conditions: oral or intravenous, intraperitoneal, and intratumor injection
[7] = system: BAEC, HUVEC, EA.hy926 cells, 3T3 cells, GH3 cells, C6 cells, HepG2 cells, SK-Hep-1 cells, MDCK cells; assay: Morphological analysis of endothelial and non-endothelial cells; type: cell-based; conditions: all types of cells tested; data not shown
Source text: (§9) FIG. 1. […] The pictures were taken at 400× magnification. […] Each data represent mean±SD of quadruplicate experiments. Asterisks indicated statistic significance versus control (P<0.001).

different types of cells = assay: Cell proliferation assay, different types of cells; type: cell-based; conditions: dose-dependent, 10-500 μg/ml, 48 h
Source text: as §9

[8] = system: bFGF-induced corneal angiogenesis; assay: Corneal angiogenesis, topical application of eye drops; type: in vivo
Description: FIG. 9. […] (A) Representative photographs of basic fibroblast growth factor (bFGF)-implanted corneas after topical application of control (phosphate buffered saline, PBS) eye drop (left panel) and ST104P-containing eye drop (50 μg/ml, middle panel; 100 μg/ml, right panel) for 7 days. The asterisk represents the place of hydron pellet implantation. […] Data represent mean±SEM (n=8 per group).
FIG. 10. Histological analysis of basic fibroblast growth factor (bFGF)-implanted rat cornea after ST104P eye drop treatment. After eye drop treatment for 7 days, the bFGF-implanted rat corneas were harvested and stained with hematoxylin and eosin (200×). […] Neocapillaries (arrowheads) are prominent in the corneal stroma.
as §1
Topical Application of ST104P
as §2, §3
After treatment, the rat corneas were dissected and fixed in […]. The […]-embedded tissues were sectioned in 5-μm slices, mounted on poly-L-lysine-coated slides and subjected to hematoxylin and eosin staining.
as §4

Water solubility = type: physicochemical
[9] = system: bFGF-induced angiogenesis in rat corneas; assay: Corneal angiogenesis, implanted hydron pellets; type: in vivo; conditions: for Area (mm^2) of neovascularization / Length (mm) of new vessels: day 7
[10] = system: neovascularization in chicken embryos (CAM); assay: Chorioallantoic membrane (CAM) assay
Description: The angiogenesis profiles on CAMs were recorded under dissection microscope.
Chorioallantoic Membrane (CAM) Assay
Briefly, fertilized White Leghorn chicken eggs were purchased from Taiwan Provincial Research Institute for Animal Health (Hsin-Chu, Taiwan) and incubated at 37° C. with 60% humidity. On day 3, a square window was opened in the shell, and 2 to 3 ml of albumen was removed to allow detachment of the developing CAM. The window was sealed with a glass, and the eggs were returned to the incubator. […] The CAMs were examined daily until day 10-12, when the angiogenic response peaks, and photographed in ovo with a stereomicroscope equipped with Zeiss MC63 camera system (Zeiss, Oberkochen, Germany). The experiments were carried out using 10 eggs per group.

[11] = ST104P 500 ng pellet without bFGF
[12] = ST104P 1000 ng pellet without bFGF

bFGF: Recombinant basic fibroblast growth factor, used as chemoattractant and as inducer of corneal angiogenesis in hydron pellets [reference compound]
Area (mm^2) of neovascularization [1]: 1.42±0.28 mm^2
Length (mm) of new vessels [1]: 1.36±0.4 mm and 1.36 ± 0.40 mm

tetrameric cyclic compound of 4,5-dihydroxynaphthalene-2, 7, disulfonic acid linked by methylene bridges [ST104P]
IC50, migration toward chemoattractant bFGF (BAEC [2]): 100 µg/mL
IC50, migration toward chemoattractant bFGF (EA.hy926): 100 µg/mL
vessel-like (tube) structure in Matrigel (BAEC [3]): effectively abolished
vessel-like (tube) structure in Matrigel (EA.hy926 cells): effectively abolished
secretion of MMP-2 [4]: potently inhibited
secretion of MMP-9 [5]: potently inhibited
weight loss or adverse effects in treated mice (Lewis lung carcinoma; ST104P 100 μg injection): no evident weight loss or adverse effects
decrease of tumor size versus saline-treated group (Lewis lung carcinoma; ST104P 100 μg injection, four times): ~40%
average tumor size (Lewis lung carcinoma; ST104P 100 μg injection, four times, saline group 4876±670, P<0.05): 2620±320 mm^3
survival of tumor-bearing mice (Lewis lung carcinoma; ST104P 100 μg, versus vehicle, Kaplan-Meier): significantly enhanced the survival rates; also recorded: survived significantly longer
tolerability in animals [6]: well tolerated
cytotoxicity by morphological analysis [7]: not very toxic
proliferation in different types of cells (different types of cells): moderately inhibited the proliferation
Area (mm^2) of neovascularization ([1]; listed as bFGF + ST104P): 0.12 ± 0.11* mm^2
Length (mm) of new vessels ([1]; listed as bFGF + ST104P): 0.17 ± 0.06* mm
Area (mm^2) of neovascularization ([1]; listed as bFGF plus ST104P): 0.12±0.11 mm^2
Length (mm) of new vessels ([1]; listed as bFGF plus ST104P): 0.17±0.06 mm
average vessel length ([8]; ST104P eye drop 100 μg/ml three times daily, day 7, PBS eye drop 1.36±0.4, P<0.01): 0.39±0.15 mm
neovascularized area ([8]; ST104P eye drop 100 μg/ml three times daily, day 7, PBS eye drop 1.42±0.28, P<0.01): 0.28±0.19 mm^2
effect on bFGF-induced cornea angiogenesis ([8]; ST104P eye drop 10-20 μg/ml): did not elicit inhibitory effect
neovascularization by histological analysis ([8]; ST104P eye drops 50 and 100 μg/ml, 7 days, hematoxylin and eosin): no significant neovascularization
toxicity to the cornea / other eye cells by histological analysis ([8]; ST104P eye drops, 7 days): appears normal histologically without apparent adverse effects; also recorded: without overt cytotoxicity
water solubility (Water solubility): excellent water solubility
Area (mm^2) of neovascularization [9, 11]: 0 mm^2
Length (mm) of new vessels [9, 11]: 0 mm
Area (mm^2) of neovascularization [9, 12]: 0 mm^2
Length (mm) of new vessels [9, 12]: 0 mm
induction of neovascularization by pellets without bFGF ([9]; ST104P pellets alone in rat corneas): did not induce neovascularization
inhibition of angiogenesis in CAM ([10]; 50 μg per CAM, 8-day old chick embryos): 50%
mortality of chick embryos ([10]; 200 μg per CAM, 9 out of 10 died): 90%
